From patent US9555039B2, “Piperidine derivatives and compositions for the inhibition of nicotinamide phosphoribosyltransferase (NAMPT)” (Forma TM, LLC., priority 2011, dated 2017)

Experiments:
[1] = target: T1, Recombinant His-tagged NAMPT (Homo sapiens, UniProt P43490); experiment: Biochemical inhibition assay: NAMPT enzymatic reaction, NMN quantified by mass spectrometry; details: 33 nM NAMPT, 1 μM NAM, 100 μM PRPP, 2.5 mM ATP, 30 minutes at room temperature; read-out: Biochem IC50
T1 construct: His; host or cells: E. coli
T1 sequence (P43490 whole entry): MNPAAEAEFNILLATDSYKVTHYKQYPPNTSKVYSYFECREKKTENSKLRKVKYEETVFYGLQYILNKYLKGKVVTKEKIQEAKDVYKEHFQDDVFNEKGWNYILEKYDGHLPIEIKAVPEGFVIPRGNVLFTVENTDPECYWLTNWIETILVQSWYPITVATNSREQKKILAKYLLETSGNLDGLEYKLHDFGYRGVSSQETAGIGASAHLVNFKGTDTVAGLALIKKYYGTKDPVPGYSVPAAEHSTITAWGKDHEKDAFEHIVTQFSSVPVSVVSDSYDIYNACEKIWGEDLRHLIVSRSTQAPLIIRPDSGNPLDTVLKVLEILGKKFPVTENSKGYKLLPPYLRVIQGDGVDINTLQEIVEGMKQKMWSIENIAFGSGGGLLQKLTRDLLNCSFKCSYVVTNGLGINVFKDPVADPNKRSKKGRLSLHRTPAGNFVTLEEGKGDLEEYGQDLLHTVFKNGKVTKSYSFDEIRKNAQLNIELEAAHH
Outline: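 Reaction 30 min at room temperature with 1 μM NAM, 100 μM PRPP, 2.5 mM ATP (final), quenched with formic acid. NMN quantified by RapidFire electrospray MS, normalized to L-cystathionine; IC50 from percent inhibition versus DMSO.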

A2780 cells = experiment: In-vitro cell proliferation assay (SRB, 72 hours); format: cell-based; details: Homo sapiens, sulforhodamine B (SRB) assay
Outline: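 Viable cells measured by TCA fixation and SRB staining, absorbance 570 nm; % inhibition vs DMSO control after media-only background subtraction, interpolated between two bracketing concentrations.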

Structure (SMILES) | IC50 [1] | IC50 (A2780 cells)
O=C(NCCCCC1CCN(S(=O)(=O)c2cccnc2)CC1)c1cc2cnccc2[nH]1 [N-{4-[1-(pyridine-3-sulfonyl)piperidin-4-yl]butyl}-1H-pyrrolo[3,2-c]pyridine-2-carboxamide] | 0.0161 µM | 0.0139 µM
O=C(NCCCCC1CCN(C(=O)c2cc3cnccc3[nH]2)CC1)c1cc2cnccc2[nH]1 [N-{4-[1-({1H-pyrrolo[3,2-c]pyridin-2-yl}carbonyl)piperidin-4-yl]butyl}-1H-pyrrolo[3,2-c]pyridine-2-carboxamide] | 0.0209 µM | 0.0113 µM
O=C(NCCCCC1CCN(C(=O)c2cc3cnccc3[nH]2)CC1)c1ccc2nccn2c1 [N-{4-[1-({1H-pyrrolo[3,2-c]pyridin-2-yl}carbonyl)piperidin-4-yl]butyl}imidazo[1,2-a]pyridine-6-carboxamide] | 0.0086 µM | 0.0131 µM
O=C(NCCCCC1CCN(C(=O)c2cc3cnccc3[nH]2)CC1)c1cc2ccncc2s1 [N-{4-[1-({1H-pyrrolo[3,2-c]pyridin-2-yl}carbonyl)piperidin-4-yl]butyl}thieno[2,3-c]pyridine-2-carboxamide] | 0.0069 µM | 0.0137 µM
O=C(NCCCCC1CCN(C(=O)c2ccc3nccn3c2)CC1)c1cc2cnccc2[nH]1 [N-{4-[1-({imidazo[1,2-a]pyridin-6-yl}carbonyl)piperidin-4-yl]butyl}-1H-pyrrolo[3,2-c]pyridine-2-carboxamide] | 0.0077 µM | 0.0138 µM
